Test results: patent publication US20240018133A1, “MODULATORS OF THE INTEGRATED STRESS PATHWAY” (Calico Life Sciences LLC, priority 2019, published 2024)
pEC50: −log10 of the molar value.

tested on: ATF4 luciferase reporter (human full-length ATF4 5'-UTR fused to firefly luciferase) in HEK293T cells; assay: ATF4-Luc assay (in vitro model of VWMD): HEK293T cells carrying ATF4 luciferase reporter, tunicamycin-treated; type: cell-based; settings: Homo sapiens, HEK-293T, 1 μg/mL tunicamycin, 7 hours, One Glo luminescence
Experimental: In order to test exemplary compounds of the invention in a cellular context, a stable VWMD cell line was first constructed. The ATF4 reporter was prepared by fusing the human full-length ATF4 5′-UTR (NCBI Accession No. BC022088.2) in front of the firefly luciferase (FLuc) coding sequence lacking the initiator methionine as described in Sidrauski et al (eLife 2013). The construct was used to produce recombinant retroviruses using standard methods and the resulting viral supernatant was used to transduce HEK293T cells, which were then subsequently selected with puromycin to generate a stable cell line.
HEK293T cells carrying the ATF4 luciferase reporter were plated on polylysine coated 384-well plates (Greiner Bio-one) at 30,000 cells per well. Cells were treated the next day with 1 μg/mL tunicamycin and 200 nM of a compound of Formula (I) for 7 hours. Luminescence was measured using One Glo (Promega) as specified by the manufacturer. Cells were maintained in DMEM with L-glutamine supplemented with 10% heat-inactivated FBS (Gibco) and Antibiotic-Antimycotic solution (Gibco).
Table 2 below summarizes the EC50 data obtained using the ATF4-Luc assay for exemplary compounds of the invention.

Structure (SMILES)	pEC50
CNC1CC(C(=O)NC23CCC(NC(=O)COc4ccc(Cl)c(F)c4)(CC2)[C@@H](O)C3)Oc2ccc(Cl)cc21 (stereo partly drawn) [Compound 303, 6-chloro-N-{(3S)-4-[2-(4-chloro-3-fluorophenoxy)acetamido]-3-hydroxybicyclo[2.2.2]octan-1-yl}-4-(methylamino)-3,4-dihydro-2H-1-benzopyran-2-carboxamide]	> 8.00
CC(C)(O)CN1C[C@@H](C(=O)NC23CC(NC(=O)COc4ccc(Cl)c(F)c4)(C2)C3)Oc2ccc(Cl)cc21 [Compound 348, (2S)-6-chloro-N-{3-[2-(4-chloro-3-fluorophenoxy)acetamido]bicyclo[1.1.1]pentan-1-yl}-4-(2-hydroxy-2-methylpropyl)-3,4-dihydro-2H-1,4-benzoxazine-2-carboxamide]	6.60 to 7.30
O=C(COc1ccc(Cl)c(F)c1)NC12CC(NC(=O)[C@@H]3C[C@H](NCC(F)(F)F)c4cc(Cl)ccc4O3)(C1)C2 [Compound 319, (2S,4S)-6-chloro-N-{3-[2-(4-chloro-3-fluorophenoxy)acetamido]bicyclo[1.1.1]pentan-1-yl}-4-[(2,2,2-trifluoroethyl)amino]-3,4-dihydro-2H-1-benzopyran-2-carboxamide]	6.60 to 7.30
COc1cc2oc(C(=O)NC34CC(NC(=O)COc5ccc(Cl)c(F)c5)(C3)C4)cc(=O)c2cc1OC [Compound 221, N-{3-[2-(4-chloro-3-fluorophenoxy)acetamido]bicyclo[1.1.1]pentan-1-yl}-6,7-dimethoxy-4-oxo-4H-1-benzopyran-2-carboxamide]	< 5.70
O=C(COc1ccc(F)c(F)c1)NC12CC(NC(=O)[C@H]3CC(=O)c4cc(F)c(F)cc4O3)(C1)C2 [Compound 271, (2R)—N-{3-[2-(3,4-difluorophenoxy)acetamido]bicyclo[1.1.1]pentan-1-yl}-6,7-difluoro-4-oxo-3,4-dihydro-2H-1-benzopyran-2-carboxamide]	7.30 to 8.00
C[C@]1(C(=O)NC23CC(NC(=O)COc4ccc(Cl)c(F)c4)(C2)C3)C[C@@H](O)c2cc(Cl)ccc2O1 (racemic) [Compound 251, rac-(2R,4R)-6-chloro-N-{3-[2-(4-chloro-3-fluorophenoxy)acetamido]bicyclo[1.1.1]pentan-1-yl}-4-hydroxy-2-methyl-3,4-dihydro-2H-1-benzopyran-2-carboxamide]	7.30 to 8.00
O=C(COc1ccc(Cl)c(F)c1)NC12CC(NC(=O)C3CC(=O)c4cc(F)c(F)cc4O3)(C1)C2 (centres unmarked) [Compound 248, N-{3-[2-(4-chloro-3-fluorophenoxy)acetamido]bicyclo[1.1.1]pentan-1-yl}-6,7-difluoro-4-oxo-3,4-dihydro-2H-1-benzopyran-2-carboxamide]	> 8.00
O=C(NC12CCC(NC(=O)[C@H]3CC(=O)c4cc(Cl)ccc4O3)(CC1)CC2)c1ccc(OC(F)(F)F)cn1 [Compound 357, N-(4-{[(2R)-6-chloro-4-oxo-3,4-dihydro-2H-1-benzopyran-2-carbonyl]amino}bicyclo[2.2.2]octan-1-yl)-5-(trifluoromethoxy)pyridine-2-carboxamide]	5.70 to 6.30
CC(=O)NC1CC(C(=O)NC23CC(NC(=O)COc4ccc(Cl)c(F)c4)(C2)C3)Oc2ccc(Cl)cc21 (centres unmarked) [Compound 220, 4-acetamido-6-chloro-N-{3-[2-(4-chloro-3-fluorophenoxy)acetamido]bicyclo[1.1.1]pentan-1-yl}-3,4-dihydro-2H-1-benzopyran-2-carboxamide]	7.30 to 8.00
O=C(COc1ccc(Cl)c(Cl)c1)NC12CC(NC(=O)[C@@H]3C[C@H](O)c4cc(F)c(F)cc4O3)(C1)C2 [Compound 208, (2S,4S)—N-{3-[2-(3,4-dichlorophenoxy)acetamido]bicyclo[1.1.1]pentan-1-yl}-6,7-difluoro-4-hydroxy-3,4-dihydro-2H-1-benzopyran-2-carboxamide]	> 8.00
O=C(COc1ccc(Cl)c(F)c1)NC12CC(NC(=O)[C@@H]3C[C@H](O)c4cc(F)c(F)cc4O3)(C1)C2 [Compound 253, (2S,4S)—N-{3-[2-(4-chloro-3-fluorophenoxy)acetamido]bicyclo[1.1.1]pentan-1-yl}-6,7-difluoro-4-hydroxy-3,4-dihydro-2H-1-benzopyran-2-carboxamide]	> 8.00
O=C(COc1ccc(Cl)c(F)c1)NC12CC(NC(=O)C3CC(O)c4ccc(F)cc4O3)(C1)C2 (centres unmarked) [Compound 222, N-{3-[2-(4-chloro-3-fluorophenoxy)acetamido]bicyclo[1.1.1]pentan-1-yl}-7-fluoro-4-hydroxy-3,4-dihydro-2H-1-benzopyran-2-carboxamide]	> 8.00
O=C(COc1ccc(Cl)c(F)c1)NC12CC(NC(=O)[C@H]3C[C@@H](O)c4cc(F)c(F)cc4O3)(C1)C2 (racemic) [Compound 249, rac-(2R,4R)—N-{3-[2-(4-chloro-3-fluorophenoxy)acetamido]bicyclo[1.1.1]pentan-1-yl}-6,7-difluoro-4-hydroxy-3,4-dihydro-2H-1-benzopyran-2-carboxamide]	> 8.00
O=C(COc1ccc(Cl)c(F)c1)NC12CCC(NC(=O)[C@H]3CC(=O)c4cc(Cl)ccc4O3)(C1)C2 [Compound 255, (2R)-6-chloro-N-{4-[2-(4-chloro-3-fluorophenoxy)acetamido]bicyclo[2.1.1]hexan-1-yl}-4-oxo-3,4-dihydro-2H-1-benzopyran-2-carboxamide]	> 8.00
C[C@@]1(O)C[C@H](C(=O)NC23CC(NC(=O)COc4ccc(Cl)c(F)c4)(C2)C3)Oc2ccc(Cl)cc21 (single isomer, unassigned) [Compound 280]	7.30 to 8.00
C[C@@]1(C(=O)NC23CC(NC(=O)COc4ccc(Cl)c(F)c4)(C2)C3)Oc2ccc(Cl)cc2C1=O [Compound 320, (2R)-5-chloro-N-{3-[2-(4-chloro-3-fluorophenoxy)acetamido]bicyclo[1.1.1]pentan-1-yl}-2-methyl-3-oxo-2,3-dihydro-1-benzofuran-2-carboxamide]	5.70 to 6.30
O=C(NC12CCC(NC(=O)[C@H]3C[C@@H](O)c4cc(Cl)ccc4O3)(CC1)C[C@@H]2O)c1cnc(C(F)F)cn1 [Compound 353, N-[(2S)-4-{[(2R,4R)-6-chloro-4-hydroxy-3,4-dihydro-2H-1-benzopyran-2-carbonyl]amino}-2-hydroxybicyclo[2.2.2]octan-1-yl]-5-(difluoromethyl)pyrazine-2-carboxamide]	6.60 to 7.30
O=C(NC12CC(NC(=O)[C@H]3C[C@@H](O)c4cc(Cl)ccc4O3)(C1)C2)c1cnn(-c2ccc(Cl)c(F)c2)c1 [Compound 391, 1-(4-chloro-3-fluorophenyl)-N-(3-{[(2R,4R)-6-chloro-4-hydroxy-3,4-dihydro-2H-1-benzopyran-2-carbonyl]amino}bicyclo[1.1.1]pentan-1-yl)-1H-pyrazole-4-carboxamide]	> 8.00
O=C(COc1ccc(Cl)c(F)c1)NC12CC(NC(=O)C3Cc4cc(Cl)ccc4N3)(C1)C2 (centres unmarked) [Compound 261, 5-chloro-N-{3-[2-(4-chloro-3-fluorophenoxy)acetamido]bicyclo[1.1.1]pentan-1-yl}-2,3-dihydro-1H-indole-2-carboxamide]	6.60 to 7.30
C[C@]1(C(=O)NC23CC(NC(=O)COc4ccc(Cl)c(F)c4)(C2)C3)Oc2ccc(Cl)cc2C1=O [Compound 259, (2S)-5-chloro-N-{3-[2-(4-chloro-3-fluorophenoxy)acetamido]bicyclo[1.1.1]pentan-1-yl}-2-methyl-3-oxo-2,3-dihydro-1-benzofuran-2-carboxamide]	5.70 to 6.30
